Reference: paper PMC6560211, “ApoAI-derived peptide increases glucose tolerance and prevents formation of atherosclerosis in mice” (Diabetologia, 2019)
No end group written: not given here.

Tested on: DIO C57BL/6NTac mice
Assay: GTT in diet-induced obesity (DIO) mice
Assay type: in vivo, mouse
Conditions: for insulin secretion in GTT: route comparison, n=6
Method: Male C57BL/6NTac mice (Taconic, Ejby, Denmark) at 8–9 weeks of age were acclimatised for 1 week on a normal chow diet, then changed to a high-fat diet for 2 weeks (diet-induced obesity; DIO), followed by GTT as indicated. Male Lepr^db (db/db) mice on a BKS background (Taconic) at 5 weeks of age were maintained on a normal chow diet and GTTs were performed at 5.5 and 14 weeks of age as indicated. Blood glucose levels were measured in fresh blood (C57: OneTouch Ultra2, Lifescan, Milpitas, CA, USA; db/db: GlucoSmart Swing, MSP bodmann, Bobingen, Germany) and insulin levels were assayed in serum using ELISA (Mercodia) at the times indicated in ESM Fig. 2. See ESM Methods for more details.
The effect of RG54 peptide on glucose disposal was investigated in an established insulin-resistant mouse model. DIO mice were fasted for 9 h followed by a single i.p. dose of RG54 (12 mg/kg), ApoA-I (14 mg/kg), liraglutide (0.1 mg/kg), or an equal volume of NaCl solution. After a further 3 h fasting period, GTTs were performed (Fig. 4a,b).
Fig. 4 Acute treatment with RG54 improves glucose tolerance during GTTs in three models of type 2 diabetes. Male C57Bl/6 mice fed a high-fat diet for 2 weeks (a–d) or db/db mice at 5.5 (e–h) or 14 (i–l) weeks old were fasted overnight, then treated with a single i.p. injection of NaCl (negative control, 200 μl; C57, n=12; db/db 5.5 weeks, n=6; db/db 14 weeks, n=6), liraglutide (0.1 mg/kg; C57, n=11; db/db 5.5 weeks, n=6; db/db 14 weeks, n=6), ApoA-I (14 mg/kg; C57, n=12; db/db 5.5 weeks, n=6; db/db 14 weeks, n=6) or RG54 (12 mg/kg; C57, n=12; db/db 5.5 weeks, n=6; db/db 14 weeks, n=5). After a further 3 h, mice received an i.p. glucose load (40 mg/mouse for C57; 50 mg/mouse for db/db) followed by blood and plasma collection at the indicated times, and blood glucose (a,e,i) and plasma insulin (b,f,j) concentrations were determined. Total AUC was calculated (mmol/l × min for glucose, pmol/l × min for insulin) and then normalised to the average value of the relevant NaCl control group to give relative AUC (% control) for glucose (c,g,k) and insulin (d,h,l). Values are means ± SEM. *p≤0.05, **p≤0.01, ***p≤0.001 vs NaCl control […]
We directly compared the i.p. and s.c. injection routes in DIO mice. DIO mice were fasted for 9 h, followed by a single i.p. or s.c. injection of RG54 (12 mg/kg), ApoA-I (14 mg/kg), or an equal volume of NaCl solution. After a further 3 h fasting and incubation period, GTTs were performed. […] Finally, we assessed the dose response of s.c. RG54 to find treatment concentrations with full or partial effects on glycaemic control as compared with our positive control (Fig. 6).
Male C57Bl/6 mice fed a high-fat diet for 2 weeks were fasted overnight, then treated with a single i.p. or s.c. injection of NaCl (negative control, 200 μl, n=6), ApoA-I (14 mg/kg, n=6) or RG54 (12 mg/kg, n=6). After a further 3 h, all mice received an i.p. glucose load (40 mg/mouse) followed by blood and plasma collection at the indicated times, and blood glucose (a,b) and plasma insulin (d,e) concentrations were determined for all injection routes. Total AUC was calculated (mmol/l × min for glucose, pmol/l × min for insulin) and then normalised to the average value of the relevant NaCl control group to give relative AUC (% control) for glucose (c) and insulin (f). Values are means ± SEM. ***p≤0.001 vs NaCl control […]
Male C57BL/6NTac mice were purchased from Taconic (Ejby, Denmark) at 8-9 weeks of age, acclimatised for one week on normal chow diet, then changed to a High-Fat Diet (HFD; Research Diets D12492, 60% fat content) for 2 weeks, followed by glucose tolerance testing (GTT) with timings as indicated (ESM Figure 2). Male Leprdb mice (db/db) on BKS background purchased from Taconic (BKS.Cg-m+/+Leprdb/BomTac, Ejby, Denmark) at 5 weeks of age were maintained on normal chow diet and GTTs were performed at 5.5 and 14 weeks of age with timings as indicated (ESM Figure 2). For the GTTs, mice fasted overnight […]

## Ac-AEYHAKATEHLSTLSEKAKPALEDLRQGLLPVLESFKVSFLSALEEYTKKLNTQ [RG54]
DIO mice, 3 h treatment, i.p.
  fasting glucose levels: significantly lowered
  fasting insulin levels: no concomitant increase
  insulin sensitivity as measured by QUICKI: no change
i.p. injection, RG54 12 mg/kg, ApoA-I 14 mg/kg
  insulin secretion in GTT: increased insulin secretion
s.c. injection, 12 mg/kg
  insulin secretion in GTT: increased glucose clearance and insulin secretion
Single i.p. dose 12 mg/kg 3 h before GTT, vs NaCl, n=12
  levels of serum insulin in GTT: significantly increased
